Source: the NIST ThermoML archive (doi:10.1016/j.fluid.2015.04.022)
Numbers after ± are expanded uncertainties.

Settings: 298.2 K, 101.33 kPa, Liquid; for viscosity: Falling or rolling sphere viscometry; for mass density: Vibrating tube method

viscosity [mPa·s] | mass density [kg/m3] | SMILES
4.57 ± 0.13 | 857.38 ± 0.28 | C=CC(C)(O)CCC=C(C)C (centres undefined) [3,7-dimethyl-1,6-octadien-3-ol]
0.92 ± 0.12 | 841.35 ± 0.36 | C=C(C)[C@H]1CC=C(C)CC1 [(R)-1-methyl-4-(1-methylethenyl)cyclohexene]
